Values of other authors in patent US20240066056A1, “Formulations of a Prophylactic Nasal Spray and Methods of Use and Manufacture Thereof” (priority 2020, published 2024).

Tests used:
[1] = tested on: SARS-CoV-2; conditions: within 30 seconds of contact
[2] = tested on: bacteria; conditions: after an application of povidone-iodine
[3] = cold and mild-warm water and alcohol

Povidone-iodine [PVP-I]
virus killed (in vitro virucidal activity) [1]: 99.99%
duration of bactericidal action after application [2]: up to eight
solubility [3]: soluble in cold and mild-warm water and alcohol
